Measured values taken from patent US20170121315A1, “HETEROBICYCLICALLY SUBSTITUTED 4-OXOBUTANE ACID DERIVATIVES AND USE THEREOF” (priority 2014, published 2017).

Key:
Format in all cases: biochemical
MMP-1 = molecular target: T1, MMP-1 (Homo sapiens, UniProt P03956); experiment: In vitro MMP-1 inhibition test; conditions: human MMP-1
T1 construct: purchased R&D Systems 901-MP
T1 sequence (P03956 100-469): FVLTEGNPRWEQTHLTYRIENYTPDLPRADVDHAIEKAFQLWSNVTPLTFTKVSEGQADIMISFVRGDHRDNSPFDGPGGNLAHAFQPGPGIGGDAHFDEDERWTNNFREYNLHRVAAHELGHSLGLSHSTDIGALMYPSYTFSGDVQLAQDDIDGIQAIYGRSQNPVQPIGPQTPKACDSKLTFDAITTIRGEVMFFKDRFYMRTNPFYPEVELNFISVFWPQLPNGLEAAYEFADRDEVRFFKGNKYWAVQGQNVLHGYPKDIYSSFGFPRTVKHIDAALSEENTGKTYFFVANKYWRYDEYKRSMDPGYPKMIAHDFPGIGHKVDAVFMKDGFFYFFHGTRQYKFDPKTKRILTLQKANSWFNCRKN
Excerpt: (§1) The MMP-mediated amidolytic cleavage of a suitable peptide substrate leads to an increase in fluorescent light here too. The signal intensity of the fluorescent light is directly proportional to the enzyme activity. The active concentration of a test compound at which half the enzyme is inhibited (50% signal intensity of the fluorescent light) is reported as the IC50 value.
(§2) Recombinant MMP-1 (R&D Systems, 901-MP) is chemically activated in accordance with the manufacturer's instructions using APMA. 1 μl of the test compound to be analysed (as a solution in DMSO, suitable concentrations e.g. 1 nM to 30 μM) is pipetted into 24 μl of activated enzyme (final concentration e.g. 2 nM) in reaction buffer (50 mM Tris/HCl pH 7.5, 10 mM CaCl2, 150 mM NaCl, 0.05% Brij®-35) in a white 384-hole microtiter plate (MTP). The enzymatic reaction is started by adding the intramolecularly quenched Mca-Pro-Leu-Gly-Leu-Dpa(Dnp)-Ala-Arg-NH2 substrate (final concentration e.g. 10 μM; R&D Systems, ES-001), so as to result in a total test volume of 50 μl. The course of the MMP-1 reaction is measured by measuring the fluorescence intensity (excitation 320 nm, emission 410 nm) over a suitable period of time (e.g. over 120 min at a temperature of 32° C.).

MMP-7 = molecular target: T2, MMP-7 (Homo sapiens, UniProt P09237); experiment: In vitro MMP-7 inhibition test; conditions: human MMP-7
T2 construct: purchased R&D Systems 907-MP
T2 sequence (P09237 95-267): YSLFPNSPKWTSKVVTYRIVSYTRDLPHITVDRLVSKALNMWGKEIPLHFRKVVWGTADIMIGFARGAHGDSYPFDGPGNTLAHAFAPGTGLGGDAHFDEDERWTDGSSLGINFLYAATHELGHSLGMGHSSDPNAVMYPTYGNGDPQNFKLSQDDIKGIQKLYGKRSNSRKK
Excerpt: as §1
as §2, with “Recombinant MMP-7 (from R&D” for “Recombinant MMP-1 (R&D”, “Systems, 907-MP)” for “Systems, 901-MP)”, “e.g. 0.5” for “e.g. 2”, “the MMP-7” for “the MMP-1”

[1] = molecular target: T3, human macrophage elastase (HME/hMMP-12) (Homo sapiens, UniProt P39900); experiment: In vitro HME inhibition test (standard or high-sensitivity); conditions: in some cases mean values, rounded to two significant figures
T3 construct: purchased R&D Systems 917-MP
Method in brief: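 Autoactivated HME (0.5 nM; high-sensitivity format 0.05 nM, ~16 h) with 5 μM quenched Mca-PLGLEEA-Dap(Dnp)-NH2 substrate in HEPES pH 7.4, NaCl, CaCl2, ZnCl2, EDTA, Brij buffer, 2 h at 37° C. Fluorescence at ex 323/em 393 nm; IC50 from signal versus concentration.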

MMP-13 = molecular target: T4, MMP-13 (Homo sapiens, UniProt P45452); experiment: In vitro MMP-13 inhibition test; conditions: human MMP-13
T4 construct: purchased R&D Systems 511-MP
Excerpt: as §1
as §2, with “Recombinant MMP-13” for “Recombinant MMP-1”, “Systems, 511-MP)” for “Systems, 901-MP)”, “e.g. 0.1” for “e.g. 2”, “the MMP-13” for “the MMP-1”

T3 sequence (P39900 106-470): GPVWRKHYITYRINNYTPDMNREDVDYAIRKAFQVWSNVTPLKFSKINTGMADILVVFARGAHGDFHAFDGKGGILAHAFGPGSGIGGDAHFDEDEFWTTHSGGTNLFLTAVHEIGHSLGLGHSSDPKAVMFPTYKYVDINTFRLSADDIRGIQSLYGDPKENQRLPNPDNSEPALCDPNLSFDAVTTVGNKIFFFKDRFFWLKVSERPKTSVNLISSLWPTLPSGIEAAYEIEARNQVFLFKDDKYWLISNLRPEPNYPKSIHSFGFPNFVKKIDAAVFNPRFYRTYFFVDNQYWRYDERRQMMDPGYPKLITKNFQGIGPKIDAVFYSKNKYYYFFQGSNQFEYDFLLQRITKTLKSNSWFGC

SMILES	IC50 (MMP-1) [µM]	IC50 (MMP-7) [µM]	IC50 [1] [µM]	IC50 (MMP-13) [µM]
O=C(CC(CCn1nnc2ccccc2c1=O)C(=O)O)c1cc2cc(OCC3CCOCC3)ccc2o1 (racemic) [Example 5, (+/−)-4-Oxo-2-[2-(4-oxo-1,2,3-benzotriazin-3(4H)-yl)ethyl]-4-[5-(tetrahydro-2H-pyran-4-ylmethoxy)-1-benzofur-2-yl]butanoic acid]	> 40	> 40	0.0021	13
O=C(CC(CCn1nnc2ccccc2c1=O)C(=O)O)c1cc2cc(OCCC3CCOCC3)ccc2o1 (racemic) [Example 6, (+/−)-4-Oxo-2-[2-(4-oxo-1,2,3-benzotriazin-3(4H)-yl)ethyl]-4-{5-[2-(tetrahydro-2H-pyran-4-yl)ethoxy]-1-benzofur-2-yl}butanoic acid]	> 40	> 40	0.004	0.73
O=C(CC(CCn1nnc2ccccc2c1=O)C(=O)O)c1cc2cc(OCCC3CCCC3)ccc2o1 (racemic) [Example 7, (+/−)-4-[5-(2-Cyclopentylethoxy)-1-benzofur-2-yl]-4-oxo-2-[2-(4-oxo-1,2,3-benzotriazin-3(4H)-yl)ethyl]butanoic acid]	> 40	> 40	0.0028	5
O=C(CC(CCn1nnc2ccccc2c1=O)C(=O)O)c1cc2cc(OCC3CCCCC3)ccc2o1 (racemic) [Example 8, (+/−)-4-[5-(Cyclohexylmethoxy)-1-benzofur-2-yl]-4-oxo-2-[2-(4-oxo-1,2,3-benzotriazin-3(4H)-yl)ethyl]butanoic acid]	> 40	> 40	0.002	22
CCCCCCCOc1ccc2oc(C(=O)CC(CCn3nnc4ccccc4c3=O)C(=O)O)cc2c1 (racemic) [Example 31, (+/−)-4-[5-(Heptyloxy)-1-benzofur-2-yl]-4-oxo-2-[2-(4-oxo-1,2,3-benzotriazin-3(4H)-yl)ethyl]butanoic acid]	> 40	> 40	0.0048	5.1
CCCOc1ccc2cc(C(=O)CC(CCn3nnc4ccccc4c3=O)C(=O)O)oc2c1 (racemic) [Example 58, (+/−)-4-Oxo-2-[2-(4-oxo-1,2,3-benzotriazin-3(4H)-yl)ethyl]-4-(6-propoxy-1-benzofur-2-yl)butanoic acid]	> 40	> 40	0.005	> 40
O=C(CC(CCn1nnc2ccccc2c1=O)C(=O)O)c1cc2ccc(OCCCC3CCCCC3)cc2o1 (racemic) [Example 71, (+/−)-4-[6-(3-Cyclohexylpropoxy)-1-benzofur-2-yl]-4-oxo-2-[2-(4-oxo-1,2,3-benzotriazin-3(4H)-yl)ethyl]butanoic acid]	> 40	> 40	0.0022	30
O=C(CC(CCn1nnc2ccccc2c1=O)C(=O)O)c1coc2cc(OCCC3CCOCC3)ccc12 (racemic) [Example 74, (+/−)-4-Oxo-2-[2-(4-oxo-1,2,3-benzotriazin-3(4H)-yl)ethyl]-4-{6-[2-(tetrahydro-2H-pyran-4-yl)ethoxy]-1-benzofur-3-yl}butanoic acid]	> 40	> 40	0.00018	0.25

Next, values leading:

IC50 (MMP-1) [µM]	IC50 (MMP-7) [µM]	IC50 [1] [µM]	IC50 (MMP-13) [µM]	SMILES
> 40	> 40	0.0026	> 40	O=C(CC(CCn1nnc2ccccc2c1=O)C(=O)O)c1cc2cc(OCCc3ccccc3Cl)ccc2o1 (racemic) [Example 1, (+/−)-4-{5-[2-(2-Chlorophenyl)ethoxy]-1-benzofur-2-yl}-4-oxo-2-[2-(4-oxo-1,2,3-benzotriazin-3(4H)-yl)ethyl]butanoic acid]
> 40	> 40	0.0026	2.2	O=C(CC(CCn1nnc2ccccc2c1=O)C(=O)O)c1cc2cc(OCCc3ccc(Cl)cc3)ccc2o1 (racemic) [Example 2, (+/−)-4-{5-[2-(4-Chlorophenyl)ethoxy]-1-benzofur-2-yl}-4-oxo-2-[2-(4-oxo-1,2,3-benzotriazin-3(4H)-yl)ethyl]butanoic acid]
> 40	> 40	0.0046	5.2	O=C(CC(CCn1nnc2ccccc2c1=O)C(=O)O)c1cc2cc(OCCCc3ccccc3)ccc2o1 (racemic) [Example 37, (+/−)-4-Oxo-2-[2-(4-oxo-1,2,3-benzotriazin-3(4H)-yl)ethyl]-4-[5-(3-phenylpropoxy)-1-benzofur-2-yl]butanoic acid]
> 40	> 40	0.00062	2.1	O=C(CC(CCn1nnc2ccccc2c1=O)C(=O)O)c1cc2cc(OCc3ccc(C(F)(F)F)cc3)ccc2o1 (racemic) [Example 44, (+/−)-4-Oxo-2-[2-(4-oxo-1,2,3-benzotriazin-3(4H)-yl)ethyl]-4-(5-{[4-(trifluoromethyl)benzyl]oxy}-1-benzofur-2-yl)butanoic acid]
> 40	> 40	0.0016	4	O=C(CC(CCn1nnc2ccccc2c1=O)C(=O)O)c1cc2cc(OCc3cccc(Cl)c3)ccc2o1 (racemic) [Example 50, (+/−)-4-{5-[(3-Chlorobenzyl)oxy]-1-benzofur-2-yl}-4-oxo-2-[2-(4-oxo-1,2,3-benzotriazin-3(4H)-yl)ethyl]butanoic acid]
> 40	35	0.0041	11	Cc1cccc(COc2ccc3oc(C(=O)CC(CCn4nnc5ccccc5c4=O)C(=O)O)cc3c2)c1 (racemic) [Example 51, (+/−)-4-{5-[(3-Methylbenzyl)oxy]-1-benzofur-2-yl}-4-oxo-2-[2-(4-oxo-1,2,3-benzotriazin-3(4H)-yl)ethyl]butanoic acid]
> 40	> 40	0.0028	4.7	O=C(CC(CCn1nnc2ccccc2c1=O)C(=O)O)c1cc2ccc(OCCc3ccccc3)cc2o1 (racemic) [Example 73, (+/−)-4-Oxo-2-[2-(4-oxo-1,2,3-benzotriazin-3(4H)-yl)ethyl]-4-[6-(2-phenylethoxy)-1-benzofur-2-yl]butanoic acid]
